These results are taken from paper PMC12518639, “Apomorphine is a novel necroptosis inhibitor targeting mixed lineage kinase domain-like protein oligomerization” (Cell Death Discovery, 2025).

One experiment concerns the target T1, Nt-hMLKL (2–154) (Homo sapiens, UniProt Q8NB16).
T1 construct: Nt-hMLKL (2–154), Nt-mMLKL (1–180), and Ct-hMLKL (183–471) were generated using the pBT7-N-His vector; His (N); made in house; host or cells: E. coli BL21
T1 sequence (Q8NB16 2-154): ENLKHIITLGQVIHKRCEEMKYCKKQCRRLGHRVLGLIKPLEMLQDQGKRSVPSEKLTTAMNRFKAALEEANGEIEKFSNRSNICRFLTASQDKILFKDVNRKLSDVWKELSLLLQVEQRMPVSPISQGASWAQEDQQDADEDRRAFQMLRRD
The experiment can be described thus: SPR binding to Nt-hMLKL. Particulars: for Kd: SPR, CM5 chip, 25 °C. The source says: The hMLKL plasmid (RC213152, OriGene, Rockville, MD, USA), and recombinant Wt-hMLKL (ab241453, Abcam) and Wt-mMLKL (MBS1379843, MyBioSource, San Diego, CA, USA) proteins were purchased. Nt-hMLKL (2–154), Nt-mMLKL (1–180), and Ct-hMLKL (183–471) were generated using the pBT7-N-His vector. Nt-hMLKL^C86A, Nt-hMLKL^F148A, -hMLKL^C86A/L89A/D94A, and Nt-hMLKL^R145A/R146A/F148A/M150A were generated using the Site-directed Mutagenesis Kit (EZ004S, Enzynomics, S. Korea). These constructs were subcloned into pBT7-N-His and pET-15b plasmid vectors. E. coli BL21 cells transformed with the cloned expression vectors were cultured in LB medium and supplemented with 100 μg/mL ampicillin until an OD at 600 nm of 0.5–0.6 was reached. The cultures were induced by 1 mM IPTG (367-93-1, Sigma-Aldrich). The cells were lysed and centrifuged. The clear supernatants were subjected to Ni-NTA affinity chromatography (175018169, QIAGEN, Hilden, Germany). Plasmids encoding mMLKL (1–464)–gyrase fusion constructs were kindly provided by Prof. James Murphy (Cell Signalling and Cell Death Division, The Walter and Eliza Hall Institute of Medical Research, Parkville, Victoria 3052, Australia).
The interactions of Wt-hMLKL, Wt-mMLKL, Nt-mMLKL, Nt, and Ct-hMLKL proteins with Re-APO or Ox-APO were detected through SPR analysis using Biacore™ T200 (Cytiva, Marlborough, MA, USA). Each MLKL protein was immobilized on a CM5 sensor chip. To derive the Rligand values, coupling processes were performed based on the molecular weights of the MLKL protein (MW ligand) and Re-APO or Ox-APO (MW analyte). Re-APO or Ox-APO was injected into an HBS buffer (10 mM HEPES, 150 mM NaCl, 3.4 mM EDTA, and 0.005% Tween 20, pH 7.4) at 25 °C (10 μL/min flow rate). Sensorgrams were recorded and analyzed in real-time using the control software in the BIAcore T200 system. All data were analyzed using the BIA evaluation software (Cytiva).
On the technique in general: In SPR one partner is held on a chip, and binding of the other changes the refractive index at the surface.

Experiment [1] concerns DSS-induced colitis in C57BL/6 mice. The experiment can be described thus: DSS-induced colitis model. It counts as in vivo, mouse. How it is done:
For DSS-induced colitis, male C57BL/6 mice aged 6–8 weeks (Central Lab Animal Inc., S. Korea) were administered 2.5% DSS (36–50 kDa, 9011-18-1, MP Biomedicals, Solon, OH, USA) in their drinking water for 8 days. The 2.5% DSS-supplemented drinking water was prepared by dissolving 12.5 g of DSS powder in 500 mL of distilled water and was freshly prepared and replaced daily throughout the 8 days. Body weight and DAI score were recorded daily. The DAI score was calculated based on weight loss (no weight loss, 1–5%, 5–10%, 10–15%, and >15% weight loss, respectively, representing DAI scores of 0, 1, 2, 3, and 4), stool consistency/diarrhea (normal = 0, loose stools = 2, and watery diarrhea = 4), and bleeding (no bleeding = 0, slight bleeding = 2, gross bleeding = 4). At the end of the experiment, the mice were sacrificed, and tissue samples were collected.
Each mouse colon was removed, measured in length, cut open, fixed in Bouin’s fixative (50% ethanol/5% acetic acid in distilled water), and embedded in paraffin. Tissue sections were stained with H&E (Sigma-Aldrich). Histological evaluation of the colitis lesions along the entire colon was performed using the scoring system: degree of crypt structural damage (0–3), degree of inflammatory cell infiltration (0–3), and degree of submucosal edema (0–3). For PAS staining, deparaffinized and rehydrated tissue sections were treated with 0.5% periodic acid (10450-60-9, Junsei Chemical Co., Tokyo, Japan) and stained with Schiff’s reagent (3952016, Sigma-Aldrich). Sections were dehydrated in ethyl alcohol and coverslipped.

Setting [2] is: 15 mg/kg i.p. daily, 2.5% DSS 8 days.

A word on the Kd: it is the equilibrium constant for the complex coming apart.

The compound `CN1CCc2cccc3c4c(cc1c23)C=CC(=O)C4=O` [Ox-APO] showed an equilibrium dissociation constant (Kd) at Nt-hMLKL (2–154) of 1.31 µM. The “fold difference of binding versus Re-APO” value on Nt-hMLKL (2–154) (from KD values) is approximately 1000 fold. The average histologic score is given as 3.0 in experiment [1] (1.5 mg/kg i.p. daily, 2.5% DSS 8 days) and 1.2 in experiment [1] (setting [2]). Besides, the “DAI score and colon length” value in experiment [1] (i.p. daily, 2.5% DSS 8 days) is on record as “more effective than Re-APO”.

`CN1CCc2cccc3c2[C@@H]1Cc1ccc(O)c(O)c1-3` [S62, (6aS)-6-methyl-5,6,6a,7-tetrahydro-4H-dibenzo[de,g]quinoline-10,11-diol]: the “colitis symptoms and pathological changes (H&E, PAS)” value in experiment [1] (0.15, 1.5 or 15 mg/kg i.p. daily, oxidative state not determined) is given as “significantly alleviated”.

On Nt-hMLKL (2–154), `CN1CCc2cccc3c2C1Cc1ccc(O)c(O)c1-3` (stereo not drawn) [Re-APO] came in with a Kd of 1140 µM. Besides, in experiment [1] (setting [2]), the average histologic score came out at 2.6. Also, the “alleviation of DSS-induced colitis symptoms relative to Ox-APO” value in experiment [1] (at the same concentration) is “about ten times weaker than Ox-APO”.
